# Measurements as given in ChEMBL document CHEMBL4477222, “Discovery of Novel Thiophene-Based, Thumb Pocket 2 Allosteric Inhibitors of the Hepatitis C NS5B Polymerase with Improved Potency and Physicochemical Profiles” (J Med Chem, 2016).
# Activity calls are given as the source filed them. The calls are words filed in the database; no cut-off is given here.
# Key:
# [1] = system: Nonstructural protein 5A (Hepatitis C virus), Q5L478 [UNDEFINED MUTATION]; test: Inhibition of BMS-790052-resistant HCV genotype 1a NS5A L31V mutant; settings: Hepatitis C virus subtype 1a
# [2] = system: Hepatitis C virus subtype 1b; test: Inhibition of HCV genotype 1b NS5B assessed as suppression of sub-genomic RNA levels at 0.5 times IC50 after 96 hrs in presence of human interferon alpha2a and ribavirin by luciferase reporter gene assay
# [3] = AUC (0 to infinity) in dog at 3 mg/kg, po; type: ADME, organism-based, Canis lupus familiaris; set-up: dose 3 mg/kg, time infinity, route oral; settings: in vivo
# [4] = system: Hepatitis C virus subtype 1b; test: Inhibition of HCV genotype 1b NS5B assessed as suppression of sub-genomic RNA levels after 96 hrs in presence of telaprevir by luciferase reporter gene assay
# [5] = biological target: Nonstructural protein 5A (Hepatitis C virus) (UniProt Q5L478); test: Ratio of EC50 for HCV genotype 1b NS5A infected in human l389lucubi- neo/NS3-375.1-containing Huh7ET cells in presence of 40% human serum to EC50 for HCV genotype 1b NS5A infected in human l389lucubi- neo/NS3-375.1-containing Huh7ET cells; settings: Hepatitis C virus subtype 1b
# [6] = Protein binding in human liver at 1 uM; type: ADME, tissue-based; settings: read-out: PB (converted)
# [7] = AUC (0 to infinity) in Fischer 344 rat at 1 mg/kg, iv through bolus administration; type: ADME, organism-based; set-up: dose 1 mg/kg, time infinity, route intravenous; settings: in vivo
# Hepatocyte [8] = test: Change in CYP1A2 mRNA levels in hepatocytes (unknown origin); type: ADME, cell-based
# [9] = system: NS3 protease (Hepatitis C virus subtype 1b), Q0ZMF1 [A156S]; test: Inhibition of telaprevir-resistant HCV NS3 protease A156S mutant; settings: Hepacivirus hominis
# [10] = Half life in monkey at 1 mg/kg, iv through bolus administration; type: ADME, organism-based, Macaca mulatta; settings: rhesus monkey, in vivo
# [11] = Drug excretion in rat bile; type: ADME, tissue-based; settings: in vivo
# [12] = Protein binding in rat liver at 1 uM; type: ADME, tissue-based; settings: read-out: PB (converted)
# Homo sapiens = species on record: Homo sapiens; test: Inhibition of human DNA polymerase-gamma by radiometric assay
# Cytochrome P450 3A4 = Cytochrome P450 3A4 (Homo sapiens, UniProt P08684); test: Induction of CYP3A4 (unknown origin) in hepatocytes; type: ADME, cell-based
# Sequence of Cytochrome P450 3A4 (P08684 whole entry): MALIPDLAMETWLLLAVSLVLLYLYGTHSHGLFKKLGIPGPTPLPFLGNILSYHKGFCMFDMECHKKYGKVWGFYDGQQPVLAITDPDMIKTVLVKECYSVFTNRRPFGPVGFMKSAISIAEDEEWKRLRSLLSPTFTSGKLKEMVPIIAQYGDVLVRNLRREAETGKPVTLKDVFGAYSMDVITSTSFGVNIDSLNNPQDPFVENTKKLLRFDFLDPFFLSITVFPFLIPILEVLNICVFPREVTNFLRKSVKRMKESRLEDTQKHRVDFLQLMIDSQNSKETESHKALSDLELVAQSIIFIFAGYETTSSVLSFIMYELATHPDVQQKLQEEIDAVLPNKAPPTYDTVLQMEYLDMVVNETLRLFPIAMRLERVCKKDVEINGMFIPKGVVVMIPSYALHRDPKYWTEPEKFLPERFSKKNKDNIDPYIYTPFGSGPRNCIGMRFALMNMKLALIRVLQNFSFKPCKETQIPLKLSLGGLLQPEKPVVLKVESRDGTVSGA
# [13] = Efflux ratio of permeability from basolateral to apical side over apical to basolateral side in human Caco2 cells; type: ADME, cell-based; settings: Caco-2
# [14] = Cmax in dog at 3 mg/kg, po; type: ADME, organism-based, Canis lupus familiaris; set-up: dose 3 mg/kg, route oral; settings: in vivo
# [15] = Protein binding in human plasma at 1 uM; type: ADME, cell-free; settings: read-out: PPB (converted)
# [16] = biological target: CYP450 (family, isoform not stated) (Homo sapiens, UniProt P04798+P05177+P05181+P08684+P10632+P10635+P11509+P11712+P13584+P20813+P20815+P20853+P24462+P24903+P33260+P33261+P51589+P78329+P98187+Q02928+Q08477+Q16678+Q16696+Q5TCH4+Q6VVX0+Q7Z449+Q8TAV3+Q96SQ9+Q9HB55); test: Inhibition of CYP450 (unknown origin); type: ADME, protein assay
# [17] = Drug uptake in Sprague-Dawley rat liver at 10 mg/kg, po administered as single dose; type: ADME, organism-based; settings: in vivo
# [18] = Half life in Fischer 344 rat at 1 mg/kg, iv through bolus administration; type: ADME, organism-based; settings: in vivo
# Hepatocyte [19] = test: Change in CYP3A4 mRNA levels in hepatocytes (unknown origin); type: ADME, cell-based
# [20] = system: NS3 protease (Hepacivirus C), C1KIQ2 [V36M]; test: Inhibition of telaprevir-resistant HCV NS3 protease V36M mutant; settings: Hepacivirus hominis
# [21] = Metabolic stability in dog liver microsomal S9 fraction assessed as compound remaining at 1 uM after 2 hrs in presence of NADPH; type: ADME, subcellular, Canis lupus familiaris; settings: read-out: Stability
# [22] = Drug level in rat plasma; type: ADME, cell-free
# [23] = Metabolic stability in monkey liver microsomal S9 fraction assessed as compound remaining at 1 uM after 2 hrs in presence of NADPH; type: ADME, subcellular, Macaca mulatta; settings: rhesus monkey, read-out: Stability
# [24] = biological target: RNA-directed RNA polymerase (Hepacivirus hominis, UniProt O39930, M423V); test: Inhibition of HCV genotype 1a NS5B M423V mutant; set-up: species or system Hepatitis C virus subtype 1a
# [25] = Ratio of drug level in liver to lungs in Sprague-Dawley rat at 10 mg/kg, po; type: ADME, organism-based, Liver/Lung; settings: in vivo
# [26] = system: Nonstructural protein 5A (Hepatitis C virus), Q5L478 [UNDEFINED MUTATION]; test: Inhibition of BMS-790052-resistant HCV genotype 1b NS5A L31V mutant; settings: Hepatitis C virus subtype 1b
# [27] = system: NS3 protease (Hepacivirus C), C1KIQ2 [R155K]; test: Inhibition of telaprevir-resistant HCV NS3 protease R155K mutant; settings: Hepacivirus hominis
# [28] = Protein binding in rat plasma at 1 uM; type: ADME, cell-free; settings: read-out: PPB (converted)
# [29] = Metabolic stability in rat liver microsomal S9 fraction assessed as compound remaining at 1 uM after 2 hrs in presence of NADPH/UDPGA; type: ADME, subcellular; settings: read-out: Stability
# [30] = biological target: DNA polymerase alpha catalytic subunit (Homo sapiens) (UniProt P09884); test: Inhibition of human DNA polymerase-alpha by fluorescence/radiometric assay
# Sequence of DNA polymerase alpha catalytic subunit (Homo sapiens) (P09884 whole entry): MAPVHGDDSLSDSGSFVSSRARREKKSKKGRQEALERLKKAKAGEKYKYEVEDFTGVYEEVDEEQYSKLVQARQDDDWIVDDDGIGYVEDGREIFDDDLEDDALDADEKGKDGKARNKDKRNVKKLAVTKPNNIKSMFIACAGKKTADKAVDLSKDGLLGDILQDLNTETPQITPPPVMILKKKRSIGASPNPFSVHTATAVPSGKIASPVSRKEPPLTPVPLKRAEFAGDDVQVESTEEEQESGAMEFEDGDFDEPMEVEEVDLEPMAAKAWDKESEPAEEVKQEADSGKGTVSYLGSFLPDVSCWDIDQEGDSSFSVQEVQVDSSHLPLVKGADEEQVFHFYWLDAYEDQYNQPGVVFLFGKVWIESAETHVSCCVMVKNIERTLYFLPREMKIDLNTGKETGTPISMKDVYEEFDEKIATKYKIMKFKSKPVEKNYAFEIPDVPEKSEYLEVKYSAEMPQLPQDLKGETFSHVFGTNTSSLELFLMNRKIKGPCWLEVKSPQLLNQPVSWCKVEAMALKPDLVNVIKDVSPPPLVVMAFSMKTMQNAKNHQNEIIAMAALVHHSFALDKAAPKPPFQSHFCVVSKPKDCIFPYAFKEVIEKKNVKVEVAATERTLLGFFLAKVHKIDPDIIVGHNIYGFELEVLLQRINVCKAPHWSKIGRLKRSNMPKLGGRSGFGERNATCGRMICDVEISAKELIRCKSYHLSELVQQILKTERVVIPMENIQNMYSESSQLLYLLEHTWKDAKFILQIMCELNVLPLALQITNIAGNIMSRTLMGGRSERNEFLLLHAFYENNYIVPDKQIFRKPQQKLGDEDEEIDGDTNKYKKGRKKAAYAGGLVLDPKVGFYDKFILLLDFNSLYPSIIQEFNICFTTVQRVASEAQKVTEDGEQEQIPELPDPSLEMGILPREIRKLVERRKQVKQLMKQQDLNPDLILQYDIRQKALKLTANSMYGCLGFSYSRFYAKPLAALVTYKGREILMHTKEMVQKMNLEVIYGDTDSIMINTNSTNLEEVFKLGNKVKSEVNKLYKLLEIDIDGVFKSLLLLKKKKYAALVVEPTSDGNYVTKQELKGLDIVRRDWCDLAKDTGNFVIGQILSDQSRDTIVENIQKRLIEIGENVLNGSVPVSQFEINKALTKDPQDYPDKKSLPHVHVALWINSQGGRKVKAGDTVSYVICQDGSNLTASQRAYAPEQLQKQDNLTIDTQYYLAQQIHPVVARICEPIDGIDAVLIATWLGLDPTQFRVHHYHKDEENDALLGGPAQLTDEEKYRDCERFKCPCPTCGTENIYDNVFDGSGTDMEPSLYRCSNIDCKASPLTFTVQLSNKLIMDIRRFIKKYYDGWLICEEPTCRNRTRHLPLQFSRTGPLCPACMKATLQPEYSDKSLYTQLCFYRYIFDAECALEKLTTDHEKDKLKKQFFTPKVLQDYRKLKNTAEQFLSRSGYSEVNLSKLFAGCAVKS
# [31] = Permeability from apical to basolateral side in human Caco2 cells; type: ADME, cell-based; settings: Caco-2, read-out: permeability
# [32] = Chemical stability of compound under long term storage in solution; type: physicochemical
# [33] = system: NS3 protease (Hepacivirus C), C1KIQ2 [T54A]; test: Inhibition of telaprevir-resistant HCV NS3 protease T54A mutant; settings: Hepacivirus hominis
# [34] = Metabolic stability in dog hepatocytes assessed as compound remaining at 10 uM after 2 hrs; type: ADME, cell-based, Canis lupus familiaris, Hepatocyte; settings: read-out: Stability
# [35] = Half life in dog at 3 mg/kg, po; type: ADME, organism-based, Canis lupus familiaris; settings: in vivo
# [36] = system: Nonstructural protein 5A (Hepatitis C virus), Q5L478 [UNDEFINED MUTATION]; test: Inhibition of BMS-790052-resistant HCV genotype 1a NS5A L31M mutant; settings: Hepatitis C virus subtype 1a
# [37] = Half life in Sprague-Dawley rat at 3 mg/kg, po; type: ADME, organism-based; settings: in vivo
# [38] = system: NS3 protease (Hepacivirus C), C1KIQ2 [A156T]; test: Inhibition of telaprevir-resistant HCV NS3 protease A156T mutant; settings: Hepacivirus hominis
# [39] = Clearance in Fischer 344 rat at 1 mg/kg, iv through bolus administration; type: ADME, organism-based; settings: in vivo
# [40] = system: Nonstructural protein 5A (Hepatitis C virus), Q5L478 [UNDEFINED MUTATION]; test: Inhibition of BMS-790052-resistant HCV genotype 1a NS5A Q30R mutant; settings: Hepatitis C virus subtype 1a
# [41] = AUC (0 to infinity) in Sprague-Dawley rat at 3 mg/kg, po; type: ADME, organism-based; set-up: dose 3 mg/kg, route oral, time infinity; settings: in vivo
# [42] = Protein binding in monkey plasma at 1 uM; type: ADME, cell-free, Macaca mulatta; settings: rhesus monkey, read-out: PPB (converted)
# [43] = Protein binding in monkey liver at 1 uM; type: ADME, tissue-based, Macaca mulatta; settings: rhesus monkey, read-out: PB (converted)
# [44] = system: Nonstructural protein 5A (Hepatitis C virus), Q5L478 [UNDEFINED MUTATION]; test: Inhibition of BMS-790052-resistant HCV genotype 1a NS5A M28T mutant; settings: Hepatitis C virus subtype 1a
# [45] = system: Nonstructural protein 5A (Hepatitis C virus), Q5L478 [UNDEFINED MUTATION]; test: Inhibition of BMS-790052-resistant HCV genotype 1a NS5A Q30H mutant; settings: Hepatitis C virus subtype 1a
# [46] = Drug uptake in Sprague-Dawley rat plasma at 10 mg/kg, po administered as single dose; type: ADME, organism-based; settings: in vivo
# Cytochrome P450 2E1 = Cytochrome P450 2E1 (Homo sapiens, UniProt P05181); test: Inhibition of CYP2E1 (unknown origin); type: ADME
# Sequence of Cytochrome P450 2E1 (P05181 whole entry): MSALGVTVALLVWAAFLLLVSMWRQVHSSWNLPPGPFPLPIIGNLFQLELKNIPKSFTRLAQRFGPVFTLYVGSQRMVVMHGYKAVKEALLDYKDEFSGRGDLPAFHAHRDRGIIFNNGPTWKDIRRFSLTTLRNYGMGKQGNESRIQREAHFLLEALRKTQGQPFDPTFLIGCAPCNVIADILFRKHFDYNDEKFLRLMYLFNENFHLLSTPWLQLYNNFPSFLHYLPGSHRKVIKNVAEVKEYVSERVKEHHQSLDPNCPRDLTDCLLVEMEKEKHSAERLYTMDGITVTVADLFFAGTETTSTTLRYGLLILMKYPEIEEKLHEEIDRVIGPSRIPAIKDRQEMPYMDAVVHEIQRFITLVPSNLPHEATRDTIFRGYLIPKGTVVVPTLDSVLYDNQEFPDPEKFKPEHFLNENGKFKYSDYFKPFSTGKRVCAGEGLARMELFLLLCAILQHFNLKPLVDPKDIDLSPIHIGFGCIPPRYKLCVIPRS
# [47] = biological target: RNA-directed RNA polymerase (Hepacivirus hominis, UniProt O39930, M423I); test: Inhibition of HCV genotype 1a NS5B M423I mutant; set-up: species or system Hepatitis C virus subtype 1a
compound,measurement,setting,value
CC(C)(C)C#Cc1cc(N(CC(=O)N2CCOCC2)C(=O)[C@H]2CC[C@H](C)CC2)c(C(=O)O)s1,inhibition,[1],Active
same,inhibition,[2],Active
same,AUC(0-inf),[3],2340 ng·h/mL
same,inhibition,[4],Active
same,Ratio EC50,[5],10 to 20
same,fraction unbound at 1 µM,[6],0.153
same,AUC(0-inf),[7],1580 ng·h/mL
same,Activity,Hepatocyte [8],Non-Toxic
same,inhibition,[9],Active
same,half-life,[10],2.2 h
same,Drug excretion,[11],Metabolite_Detected
same,fraction unbound at 1 µM,[12],0.162
same,inhibition,Homo sapiens,inactive
same,Activity,Cytochrome P450 3A4,Not Active
same,efflux ratio,[13],14
same,Cmax,[14],1550 ng/mL
same,fraction unbound at 1 µM,[15],0.014
same,IC50,[16],> 40000 nM
same,Drug uptake,[17],Active
same,half-life,[18],1.67 h
same,Activity,Hepatocyte [19],Non-Toxic
same,inhibition,[20],Active
same,"remaining at 2 h, 1 µM",[21],82%
same,Drug uptake,[22],Active
same,"remaining at 2 h, 1 µM",[23],19%
same,EC50,[24],120 nM
same,Ratio,[25],10
same,inhibition,[26],Active
same,inhibition,[27],Active
same,fraction unbound at 1 µM,[28],0.003
same,"remaining at 2 h, 1 µM",[29],79%
same,inhibition,[30],inactive
same,Papp A→B,[31],0.7 ×10⁻⁶ cm/s
same,Stability,[32],Stable
same,inhibition,[33],Active
same,"remaining at 2 h, 10 µM",[34],70%
same,half-life,[35],6.6 h
same,inhibition,[36],Active
same,half-life,[37],3.04 h
same,inhibition,[38],Active
same,clearance,[39],13.8 mL/min/kg
same,inhibition,[40],Active
same,AUC(0-inf),[41],8860 ng·h/mL
same,fraction unbound at 1 µM,[42],0.023
same,fraction unbound at 1 µM,[43],0.093
same,inhibition,[44],Active
same,inhibition,[45],Active
same,Drug uptake,[46],Active
same,IC50,Cytochrome P450 2E1,14000 nM
same,EC50,[47],89 nM
